Data from PMC7155171, “Probing the Open Global Health Chemical Diversity Library for Multistage-Active Starting Points for Next-Generation Antimalarials” (ACS Infectious Diseases, 2020).

Columns and labels:
[1] = tested on: P. berghei liver stage (PbLuc); assay: P. berghei luciferase liver stage (PbLuc) assay in HepG2-A16-CD81 hepatocytes; assay type: cell-based, Plasmodium berghei; conditions: Plasmodium berghei; for IC50: HepG2-A16-CD81, 12pt dose response, read-out: PbLuc 12pt dose response: IC50; for Emax: HepG2-A16-CD81, 48 h, 12pt dose response, maximum inhibition
[2] = target: recombinant firefly luciferase (Photinus pyralis, UniProt P08659); assay: biochemical; conditions: dose response; for Emax: maximum inhibition, read-out: rLuc inhibition dose response: Maximum inhibition (%); for IC50: read-out: rLuc inhibition dose response: IC50
recombinant firefly luciferase, sequence (P08659 whole entry): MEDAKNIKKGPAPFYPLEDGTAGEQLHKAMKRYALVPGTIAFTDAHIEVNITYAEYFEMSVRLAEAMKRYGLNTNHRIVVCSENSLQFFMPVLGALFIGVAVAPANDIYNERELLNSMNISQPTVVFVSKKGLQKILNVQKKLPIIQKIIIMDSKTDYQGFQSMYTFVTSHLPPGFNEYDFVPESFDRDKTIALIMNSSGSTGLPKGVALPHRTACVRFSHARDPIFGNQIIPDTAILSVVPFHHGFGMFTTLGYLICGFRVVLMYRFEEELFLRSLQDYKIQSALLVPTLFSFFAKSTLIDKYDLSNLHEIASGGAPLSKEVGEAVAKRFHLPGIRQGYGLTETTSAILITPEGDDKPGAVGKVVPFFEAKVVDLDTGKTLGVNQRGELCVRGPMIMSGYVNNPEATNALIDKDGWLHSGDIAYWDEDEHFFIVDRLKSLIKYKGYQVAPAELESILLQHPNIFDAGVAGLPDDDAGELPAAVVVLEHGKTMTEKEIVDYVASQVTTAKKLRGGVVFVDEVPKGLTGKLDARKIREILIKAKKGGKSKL

[3] = HepG2 cytotoxicity screening (CellTiter-Glo); conditions: human, uninfected HepG2-A16-CD81 (EGFP) hepatocytes
[4] = tested on: HepG2-A16-CD81 hepatocytes; assay: HepG2 cytotoxicity screening (CellTiter-Glo); conditions: for HepG2 cytotoxicity 12pt dose response: Maximum inhibition (%): 12pt dose response

Structure (SMILES)	IC50 [1] [µM]	Emax [1] [%]	Emax [2] [%]	IC50 [2] [µM]	IC50 [3] [µM]	inhibition at 2 µM [3] [%]	HepG2 cytotoxicity 12pt dose response: Maximum inhibition (%) [4] [%]	HepG2 Cytotoxicity primary screen (2uM): % Inhibition [4] [%]
CC(C(=O)Nc1sccc1C(N)=O)N(C)CCOc1ccccc1 (stereo not drawn) [UCSD-0809872]	0.787	95.7	17.7	> 50	> 25	5.59	7.13	
CC(C)(C)n1ncc2c1CCCC2NCc1ccc2c(c1)OCCO2 (stereo not drawn) [UCSD-0811309]	8.69	87	85	15	> 25	-4.43	2.92	
NC(=O)c1ccc(N2CCCCC2)c(NC(=O)c2ccc(F)cc2F)c1 [UCSD-0811362]	8.87	81	19.1	> 25	> 25	2.8	5.59	
Cc1cn2c(n1)C(CNCC1=Cc3ccccc3OC1)CCC2 (stereo not drawn) [UCSD-0812993]	> 2.78	93.1	66.8	> 25	> 25		24.6	-0.92
Cc1nc(C(=O)NC2CCN(CCOc3ccc(Br)cc3)CC2)cs1 [UCSD-0818164]	13.6	98.3	32.1	> 25	> 25		35.2	17.63
Cc1ncc(C(=O)NC2CCN(CCOc3ccc(Br)cc3)CC2)s1 [UCSD-0818166]	15.8	96.5	32.8	> 25	> 25	1.78	7.96	
CN1CCOC(C(=O)Nc2ccc3c(c2)nc(C(C)(C)C)n3C)C1 (stereo not drawn) [UCSD-0818200]	0.00222		88.4	13.4	> 25		0.658	
N#Cc1c(Cl)nsc1NCC1(c2ccccc2)CCC1 [UCSD-0818294]	13.2	98.3	16.9	> 25	> 25		34.3	11.95
O=C(CN1CCCC(c2ccn[nH]2)C1)Nc1nc2c(s1)CCCC2 (stereo not drawn) [UCSD-0818422]	4.53	95.9	6.65	> 25	> 25		8.88	7.13
O=C(c1ccc(Br)o1)N1CCN(Cc2ccc(OC(F)(F)F)cc2)CC1 [UCSD-0819339]	9.24	97.7	10.9	> 25	> 25	0	57.1	
CCc1nc(CN2CCN(c3ncnc4cc(F)ccc34)CC2)no1 [UCSD-0819439]	2.76	95.7	3.14	> 25	6.37	13.2	64.7	
COc1ccc(-c2nc(CN3CC(n4cc(C)cn4)C3)no2)cc1 [UCSD-0819446]	11.2	82.5	6.87	> 25	> 25		1.19	-12.79
CC(NC(=O)c1cc(-c2cccc(Cl)c2)no1)C(=O)N1CCCC1 (stereo not drawn) [UCSD-0819519]	11	91.8	37.2	> 25	> 25		0.675	0.00
CC(=O)c1c(F)cccc1N1CCC(Cc2cccnc2)CC1 [UCSD-0819611]	4.23	116	7.02	> 25	15.4	15.8	73	
